We go through 4 compounds from PMC4822341 (Cell Discovery, 2015).

Data set [1] deals with IL-6 release from A549 cells. Description: Cytokine inhibition assay, IL-6 release from A549 cells. It is filed as cell-based. The conditions noted are these: Homo sapiens, TNFα 2 ng ml^-1, read-out: IC50 (suppression of IL-6 release). As for the experimental part: A549 cells into 24-well plates were split at 40 000 cells/well. After 1 day growth, cells were treated with various steroids 1 h before overnight induction of inflammation by 2 ng ml^–1 TNFα according to literature. Sixteen hours after treatment, cell culture supernatants were subjected to anti-IL-6 Elisa (R&D Quantikine Elisa Human IL-6 Kit) according to the manual.

In a further data set the test system is OVA-induced asthma. Description: OVA-induced mouse asthma model. It is filed as in vivo, Balb/c mice. To be noted: for repression of airway hyper-responsiveness (AHR): Balb/c mice; for % repression of AHR: ACH challenge 4 mg kg^-1. As for the experimental part: As described before, 7–9-week-old female Balb/c mice (Taconic) were sensitized on days 0, 7 and 14 by i.p. injection of 50 μg OVA/1 mg alum in a total of 200 μl saline. Control mice received an equal volume of alum only. Mice were lightly anesthetized by isoflurane inhalation and challenged with intranasal OVA (100 μg in 30 μl saline) or saline on days 21–23, and were i.p. injected with different steroids. Twenty-four hours after the last challenge and treatment, pulmonary resistance was measured in response to a range of concentrations of intravenous acetylcholine using the forced oscillation technique with the FlexiVent system (SCIREQ) as previously described. Serum samples were analyzed for OVA-specific IgE using an ELISA (BD Biosciences, clone R35-118). Total and differential cell counts were determined by hemocytometer and by light microscopic evaluation of more than 300 cells per slide as previously described. After lavage, lungs were inflated with 10% buffered formalin to 25 cm H2O and transferred to 10% buffered formalin. Sections (5 μm) were stained with H&E for semi-quantitative assessment of inflammation and PAS for evaluation of mucus production. To quantify inflammation, H&E-stained lung sections were de-identified for blinding and scored for peribronchial and perivascular inflammatory cell infiltration: grade 0, no infiltration; grade 1, <25% of examined area; grade 2, 25–50%; grade 3, 51–75%; and grade 4, >75%. To quantify goblet cell hyperplasia, PAS stained lung sections were de-identified for blinding and scored for the percentage of PAS positive cells among airway epithelial cells: grade 0: none; grade 1 <25% of airway epithelial cells; grade 2, 25–50%; grade 3, 51–75%; and grade 4, >75%.

Another data set relates to RAW264.7 cells. Description: Gene expression (microarray and quantitative PCR) in LPS-stimulated RAW264.7 cells. To be noted: RAW264.7, LPS, steroid 100 nM. It counts as cell-based, mouse. As for the experimental part:
Mouse macrophage RAW264.7 cells were grown in 6-well plates to reach 80% confluence. The cells were pretreated with different steroids at 100 nM 1 h before overnight induction of inflammation by 1 μg ml^–1 LPS. Total RNA was isolated using a Qiagen mini RNA extraction kit (Valencia, CA, USA). Complementary DNA was synthesized from total RNA with an Invitrogen Superscript cDNA synthesis kit (Carlsbad, CA, USA). Target genes were quantified with a Power SYBR Green Real-Time PCR kit (Carlsbad, CA, USA) (ABI) in a StepOnePlus real-time PCR instrument (Applied Biosystems, Carlsbad, CA, USA). In every case, GAPDH (glyceraldehyde-3-phosphate dehydrogenase) was used as an internal control and data were analyzed by the ΔΔCt method. The specificity of target primers was tested both in a dissociation (melting) curve (Supplementary Figure S4) and against a water control. Primer sequence information is included in Supplementary Figure S4.
RAW264.7 cells were treated with designated steroids at 100 nM 1 h before overnight LPS stimulation of inflammation. Each treatment was duplicated. The following day, RNA samples were isolated using a Qiagen mini RNA extraction kit and applied to the Agilent Whole Mouse Genome 8x60K gene expression platform. Data were analyzed by the limma package in R program. Heat maps were generated by the HeatMap 2 package. Pathway analysis was done via DAVID Bioinformatics Resources 6.7 (NIAID) and Venn diagrams were generated by BioVenn.

A short description of data set [2]: Spleen size and weight (spleen atrophy). It counts as in vivo, DBA/1 mice. The conditions noted are these: 1 mg kg^-1 daily, 2 weeks. The protocol: (§1) Figure 5 Examination of side effects of VSGC12 and FF at the effective dose. (a) Body weight of DBA/1 mice treated with the indicated daily dose of steroids for 2 weeks. Mice body weight was measured at day 0, 7 and 14. (b) Insulin-tolerance test of mice treated with the indicated daily doses of steroids for 7 days. Glucose level was measured at day 7 at various time points before and after insulin injection. Data were plotted as percent of the glucose level of time 0. (c) Plasma insulin levels of mice treated with the indicated daily doses of steroid for 7 days. (d) Spleen size and weight for mice treated with the indicated daily doses of steroid for 2 weeks. (e) Cortical bone thickness of femurs of mice treated with the indicated daily doses of steroid for 2 weeks. (f) Bone stiffness of femurs of mice treated with the indicated daily doses of steroid for 2 weeks. Mouse strain: DBA/1. Each treatment n=5, error bars indicate s.e.m., *P<0.05; **P<0.01; ***P<0.001.

The nature of data set [3]: Body weight (growth inhibition) of DBA/1 mice. It is filed as in vivo. To be noted: 1 mg kg^-1 daily i.p., 2 weeks, 7-week-old mice. As for the experimental part:
as §1

Data set [4] in a line: Insulin-tolerance test and plasma insulin level. To be noted: 1 mg kg^-1 daily, 7 days.
Description: DBA/1 mice (Taconic) were weighted just before the experiment. After 4 h fasting, mice were i.p. injected with 0.75 U kg^–1 of insulin (Huamlin R). Blood samples were taken from the tail at time 0 (before insulin injection), 15, 30, 45, 60, 90 and 120 min after injection. Plasma glucose levels were measured using an AlphaTrak glucose meter. All data were plotted as percent of glucose level at time 0. Endogenous insulin levels were measured using the Ultra Sensitive Mouse Insulin ELISA kit (Crystal Chem, Downers Groove, IL, USA).
Data set [5] in a line: Bone density (μCT) and biomechanics testing of femurs. It counts as in vivo, DBA/1 mice. The conditions noted are these: 1 mg kg^-1 daily, 2 weeks. As for the experimental part: Femur bones were collected and scanned by μCT (Skyscan 1172 uCT) for quantification of trabecular and cortical bone parameters. The thresholds for μCT quantification of trabecular and cortical bone parameters were set at 80–100 and 100–110, respectively. μCT analyses of cortical bone parameters were performed on 100-μCT slices (1 mm total) from the middle shaft of femurs; trabecular parameters were assessed in 100-μCT slices (1 mm total) immediately below the distal growth plate of the femur. Following uCT scans, the femurs were individually tested on a TestResources 570 Force Transducer. Bones were thawed in PBS before being tested, to ensure no brittleness was due to freezing. […] Data points were collected at a frequency of 50 Hz and a deflection rate of 0.005 mm s^–1.

In data set [6] the target is β2-adrenergic receptor induction. Also noted: method as in PMID 10433509. The conditions noted are these: A549 cells; cited from earlier work.
The test system of data set [7] is granulocyte macrophage colony-stimulating factor release. Also noted: method as in PMID 10433509. To be noted: A549 cells; read-out: IC50 to inhibit granulocyte macrophage colony-stimulating factor release; cited from earlier work.
Data set [8] concerns the target T1, GR (Homo sapiens, UniProt P04150).
T1 construct: expressed in transfected cells; host or cells: AD293
T1 sequence (P04150 1-777): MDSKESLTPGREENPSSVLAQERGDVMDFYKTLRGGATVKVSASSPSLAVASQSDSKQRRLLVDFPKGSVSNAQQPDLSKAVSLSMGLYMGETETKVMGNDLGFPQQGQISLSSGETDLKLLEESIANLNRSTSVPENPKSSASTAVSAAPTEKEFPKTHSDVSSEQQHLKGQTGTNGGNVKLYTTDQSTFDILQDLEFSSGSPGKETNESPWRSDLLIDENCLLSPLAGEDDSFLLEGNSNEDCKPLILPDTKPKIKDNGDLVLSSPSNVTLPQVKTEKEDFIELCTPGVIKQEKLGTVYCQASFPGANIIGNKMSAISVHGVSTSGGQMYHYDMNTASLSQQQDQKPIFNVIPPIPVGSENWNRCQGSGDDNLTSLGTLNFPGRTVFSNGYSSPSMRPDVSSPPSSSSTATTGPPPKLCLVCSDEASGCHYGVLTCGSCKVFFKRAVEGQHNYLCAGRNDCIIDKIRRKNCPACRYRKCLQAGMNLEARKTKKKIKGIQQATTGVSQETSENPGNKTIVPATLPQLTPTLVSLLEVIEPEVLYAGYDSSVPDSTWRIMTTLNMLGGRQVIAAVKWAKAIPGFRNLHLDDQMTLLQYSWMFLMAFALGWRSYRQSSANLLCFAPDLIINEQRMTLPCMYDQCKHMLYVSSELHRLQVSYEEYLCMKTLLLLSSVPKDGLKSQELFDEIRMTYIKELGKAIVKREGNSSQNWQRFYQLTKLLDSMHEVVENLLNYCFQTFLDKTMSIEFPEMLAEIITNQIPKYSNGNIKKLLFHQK
Description: MMTV-Luc induction reporter assay in AD293 cells. The conditions noted are these: 16 h. It is filed as cell-based. As for the experimental part: (§2) Similar to previous reports, for induction 100 ng pHHLuc (MMTV-Luc) plasmid, 0.1 ng pRShGR together with 5 ng phRGtkRenilla were transfected by X-tremeGENE 9 (Roche) into AD293 cells per well in 24-well plate. For transrepression, 10 ng AP-1-Luc or 10ng pNF-κB-luc, 100 ng pRShGR and 5 ng phRGtkRenilla were transfected into AD293 cells per well. We used the same transfection protocol for the MR and PR assays, except of the use of 0.1 ng MR or PR plasmid to substitute GR. One day after transfection, for induction, cells were directly treated by steroids for 16 h; for repression, cells were treated with either PMA at 0.6 ng ml^–1 (for AP-1 reporter) or TNFα at 2 ng ml^–1 (for NF-κB reporter), together with various steroids. Cells were collected by addition of 1× Passive Lysis Buffer (Promega, Madison, WI, USA), and luciferase activity was assayed by the Dual-Glo Luciferase system (Promega). Data were plotted as firefly luciferase activity normalized to Renilla luciferase activity in Relative Luciferase Units.

The target in data set [9] is T1, GR. Description: In vitro H3-Dex competition GR ligand-binding assay. To be noted: H3-DEX 15 nM, GR cytosol. From the text:
The in vitro GR binding assay is similar to the one described previously. […] Data were plotted as a standard competition curve by GraphPad Prism 5.

The target of data set [10] is T1, GR. Description: AP-1-Luc repression reporter assay in AD293 cells. To be noted: AP-1 reporter, PMA 0.6 ng ml^-1. It is filed as cell-based. As for the experimental part:
as §2

For data set [11], the target named is T1, GR. To be noted: cited from earlier work.
Data set [12] concerns the target T1, GR. Description: NF-κB-Luc repression reporter assay in AD293 cells. It counts as cell-based. The conditions noted are these: TNFα 2 ng ml^-1. As for the experimental part:
as §2
Error bars indicate SD, n=3.

SMILES strings stand for the structures. pEC50, pIC50: −log10 of the molar value. Where “and” joins values, the source holds several entries; their conditions need not be identical. Equal values may be shown once. Some results are limits rather than exact numbers.

Consider `C[C@@H]1C[C@H]2[C@@H]3CCC4=CC(=O)C=C[C@]4(C)[C@@]3(F)[C@@H](O)C[C@]2(C)[C@@]1(O)C(=O)CO` [DEX, dexamethasone, reference compound], for which the pIC50 in data set [1] was 9.10. For the same compound, in the data set with OVA-induced asthma (1 mg kg^-1 i.p.), the “infiltration of immune responsive cells into the lungs (total and differential cell count)” value is on record as “only a mild effect”; the “repression of airway hyper-responsiveness (AHR)” value (“repression … (AHR)” below) is “neither VSG22 nor DEX can effectively repress the airway hyper-responsiveness”.
Regarding `C[C@@H]1C[C@H]2[C@@H]3C[C@H](F)C4=CC(=O)C=C[C@]4(C)[C@@]3(F)[C@@H](O)C[C@]2(C)[C@@]1(OC(=O)c1ccco1)C(=O)SCF` [FF, fluticasone furoate, reference compound], in the data set with RAW264.7 cells, the “inhibition activity of pro-inflammatory cytokines (microarray, normalized to DEX)” value is on record as “much stronger inhibition activity than DEX”. The negative logarithm of the IC50 (pIC50) in data set [1] was 10.52. For the same compound, the “atrophy of the spleen” value in data set [2] was “dramatic shrinkage of the spleen”. Further, in the data set on OVA-induced asthma (0.125 mg/kg), the “% repression of total differentiated cells” value came out at 14%; the “% repression of AHR” value is < 28% and 28%. Further, in the data set with OVA-induced asthma (0.25 mg/kg), the “% repression of total differentiated cells” value is 30%; the “% repression of AHR” value is < 35% and 34%. For the same compound, in the data set with OVA-induced asthma (1 mg kg^-1 i.p.), the “infiltration of immune responsive cells into the lungs (total and differential cell count)” value is listed as “strongly repressed the infiltration of immune responsive cells into the lungs”; the “repression … (AHR)” value is on record as “strongly suppress the AHR to the basal level”. Further, in the data set on OVA-induced asthma (1 mg kg^-1 i.p., grade 0-4), the “histology score, PAS staining” value is 1.5; the “histology score, hematoxylin and eosin staining” value is 0.83. In addition, the “% repression of AHR” value in the data set with OVA-induced asthma (1 mg/kg, OVA+DMSO 0, saline 100) was 95%. Besides, in the data set with OVA-induced asthma (1 mg/kg, saline 100, OVA+DMSO 0), the “% repression of total differentiated cells” value was found to be 94%. In addition, the “minimal dose to maximally repress the inflammation (maximal effective dose)” value in the data set with OVA-induced asthma (judged from AHR, i.p.) turned out to be 1 mg kg^–1. For the same compound, in the data set with OVA-induced asthma (lower doses (0.25, 0.125, 0.0625 mg kg^-1)), the OVA-IgE levels entry is “unexpectedly higher than the vehicle control”. The “growth inhibition (body weight)” value in data set [3] is given as “significant growth inhibition”. Also, in data set [4], the “insulin resistance in insulin-tolerance test” value is “hyper-insulin resistance” and the “plasma (endogenous) insulin level” value is recorded as “dramatic increase of the endogenous insulin level”. In addition, in data set [5], the “bone strength (stiffness) of femurs” value is listed as “dramatic decrease of bone strength in terms of stiffness”. Moreover, in data set [5] (μCT), the “cortical bone thickness of femurs” value was “dramatic decrease of the cortical bone thickness”.
Take `CCC(=O)O[C@]1(C(=O)SCF)[C@H](C)C[C@H]2[C@@H]3C[C@H](F)C4=CC(=O)C=C[C@]4(C)[C@@]3(F)[C@@H](O)C[C@@]21C` [FP, fluticasone propionate]: the pEC50 in data set [6] is 8.96. Further, the pIC50 in [7] is 10.74.
Take `CON(C)C(=O)C1(OC(=O)c2ccco2)CCC2C3CCC4=Cc5c(cnn5-c5ccccc5)CC4(C)C3C(O)CC21C` (stereo not drawn) [VSG22]: at GR [8], the pEC50 was 9.13. For the same compound, the “inhibition activity of pro-inflammatory cytokines (microarray, normalized to DEX)” value in the data set on RAW264.7 cells is given as “much stronger inhibition activity than DEX”. The pIC50 is 10.15 in [1], 8.39 at GR [9], 10.40 at GR [10] and 10.00 on GR [12]. In addition, the “repression … (AHR)” value with OVA-induced asthma (1 mg kg^-1 i.p.) was “neither VSG22 nor DEX can effectively repress the airway hyper-responsiveness”. Moreover, the “increase in potency relative to the original backbone VSG24” value at GR [11] is listed as “more than 1 000 fold”.
